# Values quoted from earlier work, collected in publication PMC11431785, “From In Vitro Promise to In Vivo Reality: An Instructive Account of Infection Model Evaluation of Antimicrobial Peptides” (International Journal of Molecular Sciences, 2024).
# Key:
# [1] = system: 1BR3G human fibroblast cells; settings: cytotoxicity, RPMI 2% FBS, Cell Titer Blue, triplicate; cited from earlier work
# Text: Table 1 Sequence and properties of peptides in this study. | column: IC50 (μM)
# [2] = human serum mixed 1:1 with peptide 1 mM in water, 37 °C with stirring, aliquots 0-1440 min, TCA precipitation, HPLC; cited from earlier work
# Text: Table 1 Sequence and properties of peptides in this study. | column: t1/2 (min) || In this work, we focus on crotalicidin (Ctn), a 34-residue AMP from the venom of Crotalus durissus terrificus, a South American pit viper. […] It is, however, slightly toxic to eukaryotic cells, including cancer cells, which makes it a good anticancer peptide (ACP) candidate. Virtual Ctn dissection with elastase yields two fragments, Ctn[1-14] and Ctn[15-34]. While the former (KRFKKFFKKVKKSV) retains the α-helical conformation of Ctn, it loses both the anticance ...
# [3] = system: A. baumannii; settings: MHB, inoculum 5 × 10^5 CFU/mL, 20–22 h at 37 °C, 0.04% BSA and 0.002% acetic acid, duplicate; cited from earlier work
# Text: Table 1 Sequence and properties of peptides in this study. | column: MIC (μM) A. baumannii
substance,measurement,setting,value
crotalicidin [Ctn],IC50,[1],14.3 µM
same,t1/2,[2],71 min
same,MIC (μM) A. baumannii,[3],0.78 µM
